Measured values taken from patent US10111880B2, “Compounds for the treatment of diabetes and disease complications arising from same” (BEN-GURION UNIVERSITY OF THE NEGEV RESEARCH AND DEVELOPMENT …, priority 2013, dated 2018).
“Also recorded” adds a separate entry of the source.

Assays:
[1] = system: insulin expressing beta islets; test: Immunofluorescence of pancreatic slices with anti-insulin antibody, insulin expressing beta islets in mice; format: in vivo, mouse
Method: The light grey (originally red) stains insulin producing cells, and the darker grey (originally blue) is for DAPI staining. Density of insulin staining per area was measured using “Image J” software (D-E). The results are mean±S.E.; n=4. ***p<0.005. Magnification: ×10.

pancreatic β-cells = test: Insulin immuno-histochemical and immuno-fluorescence staining of pancreas, β-cell mass in STZ-injected rats; format: in vivo, rat; details: FIG. 5A, 5B, 5D
Method: Rats were treated as described in Example 1, pancreata were removed fixed in 4% formalin, and embedded in paraffin for immuno-histochemical and immuno-fluorescence staining using a specific anti-insulin antibody and serial histopathologic sections were prepared. […] Brown staining in FIG. 5A indicates insulin staining positivity by immunohistochemistry, and red staining (FIGS. 5B and 5C) indicates insulin staining positivity by immunofluorescence, blue cellular staining was effected with Dapi). The Cell density and density of insulin staining per area was measured using “Image J” software (FIGS. 5D and 5E). The results are presented as mean±S.E.; n=4. ***p<0.005.

[2] = system: STZ-induced diabetic ICR mice; test: Blood glucose over time in STZ mice, short course (2 weeks) AGS treatment with or without insulin; format: in vivo, mouse
Method: (§1) Eight weeks-old female ICR mice were injected intraperitoneally (IP) with Streptozotocin (STZ), at a dose of 40 mg/Kg, for 5 consecutive days. The following day and onward, mice were administered the AGS compounds (499 or 500, as indicated), at a dose of 6 mg/Kg, either subcutaneously or orally, every other day. Blood glucose levels were monitored daily.
(§2) After the establishment of diabetes (i.e. three consecutive blood glucose measurements of >200 mg/dL), mouse groups were further sub-divided into 2 sub-groups, one of each received insulin (gradual administration of 0.5-6 units/Kg, over a period of 2 weeks) subcutaneously, every other day. Blood glucose levels were monitored daily.

[3] = system: STZ-induced diabetic ICR mice; test: Glucose tolerance test in STZ mice after short course (2 weeks) AGS treatment; format: in vivo, mouse
Method: as §1, §2
Glucose tolerance tests were also performed as follows: After two weeks mice were fasted for 12 hours, then injected with D-glucose (1.5 g/Kg, IP) and blood glucose levels were examined at 0, 10, 20, 30, 60, 90 and 120 minutes, in order to evaluate pancreatic function.

[4] = system: STZ-induced diabetic ICR mice; test: Glucose Tolerance Test (GTT) in STZ diabetic mice after 2 and 5 months; format: in vivo, mouse; details: for Improvement (fold): GTT after 2 months; for Fold of Improvement: GTT after 5 months; for Time needed for the Pancreas to cope glucose load after 5 months / Time needed for the Pancreas to cope with glucose load after 2 months: GTT
Method: Glucose Tolerance Test: Animals were fasted for 12 hr with free access to water. Blood-glucose levels after fast were measured and then the animals received an i.p. injection of glucose (1.5 g/kg). Blood samples were taken at several intervals (for the duration of 2 hr), when glucose levels above 200 mg/dl at 2 hr confirmed a diagnosis of diabetes.
[…] Mice were subjected to 12 hours fast (with water) weighed, blood glucose level was measured and Glucose at 1.5 gr/kg in no more than 100 μl was injected IP. Blood glucose levels were measured at 10, 20, 30, 60, 90 and 120 min after glucose injection. glucose tolerance test.

Q: Which “β-cell Mass in STZ-injected mice” value ([1]; immunofluorescence, FIG. 5C) does the source give for `CC(c1cc(Br)c(O)c(Br)c1)(c1cc(Br)c(O)c(Br)c1)c1cc(Br)c(O)c(Br)c1` [AGS-500, 1,1,1-tris (4-hydroxy-3,5-dibromo-phenyl)-ethane] here?
A: preserved β-cell Mass

Q: What about the “No of insulin expressing beta islets/mouse” value ([1]; no insulin, daily) of the same compound?
A: 5.6

Q: And the “increase in Insulin expressing Beta islets” value (“increase” for short) ([1]; no insulin, daily)?
A: 215%

Q: What about the “No of insulin expressing beta islets/mouse” value ([1]; no insulin, every 48 hrs) of the same compound?
A: 5

Q: And the “increase” value ([1]; no insulin, every 48 hrs)?
A: 192%

Q: What about the “No of insulin expressing beta islets/mouse” value ([1]; with insulin, AGS daily) of the same compound?
A: 2.5

Q: And the “No of insulin expressing beta islets/mouse” value ([1]; with insulin, AGS every 48 hrs)?
A: 3

Q: And the “increase” value ([1]; with insulin, AGS every 48 hrs)?
A: 115%

Q: What about the “β-cell mass in the pancreas of STZ-injected rats” value (pancreatic β-cells) of the same compound?
A: significantly larger β-cell mass; also recorded: preserved β-cell Mass

Q: And the “circulating glucose levels over time” value ([2]; 6 mg/Kg every other day, short course (2 weeks), FIG. 13-1)?
A: lowering circulating glucose levels significantly

Q: What about the “circulating glucose levels over time, combined with insulin therapy” value ([2]; short course, insulin 0.5-6 units/Kg, FIG. 13-2) of the same compound?
A: synergistic contribution

Q: And the “mean blood glucose levels in a glucose tolerance test” value ([3]; 6 mg/Kg subcutaneously or orally every other day, FIG. 11)?
A: reduced mean blood glucose levels

Q: And the “effect of adding insulin on circulating glucose levels in a glucose tolerance test” value ([3]; AGS subcutaneously (AGS500 also orally), FIG. 12)?
A: adding insulin did not appreciably lower the circulating levels

Q: And the “Improvement (fold)” value ([4]; daily)?
A: 1.5 fold

Q: And the “Improvement (fold)” value ([4]; every 48 hrs)?
A: 3 fold

Q: What about the “Fold of Improvement” value ([4]; daily) of the same compound?
A: 3 fold

Q: And the “Fold of Improvement” value ([4]; every 48 hrs)?
A: normal

Q: What about the “Time needed for the Pancreas to cope glucose load after 5 months” value ([4]; daily) of the same compound?
A: 30 min

Q: What about the “Time needed for the Pancreas to cope with glucose load after 2 months” value ([4]; daily) of the same compound?
A: 60 min

Q: What about the “Time needed for the Pancreas to cope glucose load after 5 months” value ([4]; every 48 hrs) of the same compound?
A: 20 min

Q: And the “Time needed for the Pancreas to cope with glucose load after 2 months” value ([4]; every 48 hrs)?
A: 30 min

Q: What about the “GTT test performed after 5 months” value ([4]; treatment every 48 hours, FIG. 4) of the same compound?
A: significant improvement in the GTT test
